Assay: photocatalytic hydrogen evolution rate (per 5 mg catalyst); higher = more photocatalytic H2 evolution; extreme values may be limits of the assay
Conditions: catalyst mass (mg): 5; Pt cocatalyst (wt%): 3; sacrificial medium: triethylamine/methanol/water 1:1:1
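Note: aromatic molecules in triethylamine/methanol/water with Pt photoreduced in situ, irradiated 3 h under a 1 sun AM 1.5G solar simulator (350–1000 nm), H2 quantified by headspace gas chromatography; listed molecule itself used as the photocatalyst at 5 mg per vial.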

N#Cc1ccc2ccc(C#N)cc2c1
photocatalytic hydrogen evolution rate: 0.0489 µmol/h

Oc1c(F)c(F)c(O)c(F)c1F
photocatalytic hydrogen evolution rate: 0 µmol/h

S=C=Nc1cc(Br)ccc1Br
photocatalytic hydrogen evolution rate: 0 µmol/h

O=Cc1cccc2cccnc12
photocatalytic hydrogen evolution rate: 1.45 µmol/h

N#Cc1ccc(C#N)c(OC(F)(F)F)c1
photocatalytic hydrogen evolution rate: 0.153 µmol/h

O=Cc1cccc(C=O)c1
photocatalytic hydrogen evolution rate: 1.65 µmol/h

Brc1ccc(N(c2ccccc2)c2ccc(Br)cc2)cc1
photocatalytic hydrogen evolution rate: 0.729 µmol/h

O=c1cc(Br)[nH]c(Br)c1
photocatalytic hydrogen evolution rate: 0 µmol/h

Nc1cc(Br)c(Br)cc1N
photocatalytic hydrogen evolution rate: 0 µmol/h

O=C(O)c1ccc(-c2cc(-c3ccc(C(=O)O)cc3)c(-c3ccc(C(=O)O)cc3)cc2-c2ccc(C(=O)O)cc2)cc1
photocatalytic hydrogen evolution rate: 0.052 µmol/h

Cc1cccc(N(c2ccc(C=O)cc2)c2cccc(C)c2)c1
photocatalytic hydrogen evolution rate: 0.245 µmol/h

N#Cc1cccc(-c2cccc(C=O)c2)c1
photocatalytic hydrogen evolution rate: 1.09 µmol/h

Brc1ncc(Br)n2ccnc12
photocatalytic hydrogen evolution rate: 0.00675 µmol/h

N#CCc1ccc(C#N)cc1
photocatalytic hydrogen evolution rate: 0 µmol/h

C#Cc1cnc[nH]1
photocatalytic hydrogen evolution rate: 0 µmol/h

C#Cc1cc(C(=O)O)cc(C(=O)O)c1
photocatalytic hydrogen evolution rate: 0 µmol/h

Cc1c(CBr)c(C)c(CBr)c(C)c1CBr
photocatalytic hydrogen evolution rate: 0 µmol/h

Nc1cc(C(=O)O)cc(C(=O)O)c1
photocatalytic hydrogen evolution rate: 0 µmol/h

N#Cc1cc(N)ccn1
photocatalytic hydrogen evolution rate: 0 µmol/h

N#Cc1cccc(C#N)n1
photocatalytic hydrogen evolution rate: 0 µmol/h

c1ccc2c(c1)Cc1cc3c(cc1-2)Cc1ccccc1-3
photocatalytic hydrogen evolution rate: 0.136 µmol/h

N#CC(C#N)=c1cc(F)c(=C(C#N)C#N)cc1F
photocatalytic hydrogen evolution rate: 0 µmol/h

Cc1cc(C)cc([N+](=O)[O-])c1
photocatalytic hydrogen evolution rate: 0 µmol/h

O=Cc1ccc(/C=C/c2ccccc2)cc1
photocatalytic hydrogen evolution rate: 0.017 µmol/h

O=C1C(O)=C(O)C(=O)C(O)=C1O
photocatalytic hydrogen evolution rate: 0 µmol/h

O=C1C(Br)=C(Br)C(=O)C(Br)=C1Br
photocatalytic hydrogen evolution rate: 0 µmol/h

O=Cc1ccc(Br)cn1
photocatalytic hydrogen evolution rate: 0 µmol/h

CC(O)c1ccc2ccccc2c1 (configuration not stated)
photocatalytic hydrogen evolution rate: 0 µmol/h

O=C1c2ccccc2C(=O)c2ccccc21
photocatalytic hydrogen evolution rate: 0 µmol/h

Oc1c(Br)cc(Br)cc1Br
photocatalytic hydrogen evolution rate: 0.0139 µmol/h

Brc1ccc2c(c1)Cc1cc(Br)ccc1-2
photocatalytic hydrogen evolution rate: 0 µmol/h

OB(O)c1cc(F)c(B(O)O)cc1F
photocatalytic hydrogen evolution rate: 0 µmol/h

N[C@@H](Cc1ccccc1)C(=O)O
photocatalytic hydrogen evolution rate: 0.0539 µmol/h

C#Cc1cc(C#C)cc(C#C)c1
photocatalytic hydrogen evolution rate: 0 µmol/h

O=C1C=CC(=O)c2c(O)cccc21
photocatalytic hydrogen evolution rate: 0 µmol/h

Nc1ccc(Br)cc1Br
photocatalytic hydrogen evolution rate: 0 µmol/h

Cc1cc(C#N)ccc1N
photocatalytic hydrogen evolution rate: 0.0133 µmol/h

N#Cc1ccc(Cc2ccc(C#N)cc2)cc1
photocatalytic hydrogen evolution rate: 0 µmol/h

c1ccc2sccc2c1
photocatalytic hydrogen evolution rate: 0 µmol/h

Nc1c(Br)cc2[nH]cnc2c1Br
photocatalytic hydrogen evolution rate: 0 µmol/h

O=C(/C=C/c1ccccc1)c1ccccc1
photocatalytic hydrogen evolution rate: 0.146 µmol/h

N#Cc1ncccc1Br
photocatalytic hydrogen evolution rate: 0 µmol/h

c1cc(-c2ccncc2)ccn1
photocatalytic hydrogen evolution rate: 0 µmol/h

O=C(O)c1ccc(C#Cc2cc(C#Cc3ccc(C(=O)O)cc3)cc(C#Cc3ccc(C(=O)O)cc3)c2)cc1
photocatalytic hydrogen evolution rate: 0 µmol/h

O=Cc1ccc(-c2ccc(C=O)s2)s1
photocatalytic hydrogen evolution rate: 1.18 µmol/h

Oc1cc2c3cc(O)c(O)cc3c3cc(O)c(O)cc3c2cc1O
photocatalytic hydrogen evolution rate: 0.155 µmol/h

CC1(C)c2ccccc2Oc2ccccc21
photocatalytic hydrogen evolution rate: 0.0132 µmol/h

O=c1[nH]cc(Br)nc1Br
photocatalytic hydrogen evolution rate: 0 µmol/h

NC(c1ccccc1)(c1ccccc1)c1ccccc1
photocatalytic hydrogen evolution rate: 0 µmol/h

CC1(C)CC2(CC(C)(C)c3cc(O)c(O)cc32)c2cc(O)c(O)cc21
photocatalytic hydrogen evolution rate: 0 µmol/h

O=Cc1cc(Br)nc(Br)c1
photocatalytic hydrogen evolution rate: 0.107 µmol/h

Nc1cccc(N)c1
photocatalytic hydrogen evolution rate: 0 µmol/h

Brc1ccc2[nH]c3ccc(Br)cc3c2c1
photocatalytic hydrogen evolution rate: 0 µmol/h

c1ccc2c(c1)[nH]c1ccccc12
photocatalytic hydrogen evolution rate: 0 µmol/h

N#CCc1ccccc1-c1ccccc1CC#N
photocatalytic hydrogen evolution rate: 0 µmol/h

O=Cc1ccc(B(O)O)cc1
photocatalytic hydrogen evolution rate: 0.0401 µmol/h

O=Cc1cccc(-c2ccccc2)c1
photocatalytic hydrogen evolution rate: 3.14 µmol/h

Brc1nnc(Br)s1
photocatalytic hydrogen evolution rate: 0 µmol/h

c1ccc2c(c1)-c1ccccc1C21c2ccccc2-c2ccccc21
photocatalytic hydrogen evolution rate: 0 µmol/h

Cc1ccc(C(=O)c2ccccc2)cc1
photocatalytic hydrogen evolution rate: 3.44 µmol/h

O=C(O)Cc1ccc(-c2ccccc2)cc1
photocatalytic hydrogen evolution rate: 0.0393 µmol/h

O=c1[nH]cc[nH]1
photocatalytic hydrogen evolution rate: 0 µmol/h

N#Cc1cc(F)c(F)cc1F
photocatalytic hydrogen evolution rate: 0.0582 µmol/h

N#Cc1ccc(-c2cccc(N)c2)cc1
photocatalytic hydrogen evolution rate: 0 µmol/h

Oc1c(Br)c(O)c(Br)c(O)c1Br
photocatalytic hydrogen evolution rate: 0 µmol/h

O=Cc1ncc[nH]1
photocatalytic hydrogen evolution rate: 0.469 µmol/h

Brc1ccc(Br)cc1
photocatalytic hydrogen evolution rate: 0 µmol/h

N#Cc1cc(N)c(N)cc1C#N
photocatalytic hydrogen evolution rate: 0 µmol/h

Fc1c(F)c(Br)c(F)c(F)c1Br
photocatalytic hydrogen evolution rate: 0 µmol/h

CC1(C)OB(c2c3ccccc3c(B3OC(C)(C)C(C)(C)O3)c3ccccc23)OC1(C)C
photocatalytic hydrogen evolution rate: 0 µmol/h

C#Cc1ccc(C#N)cc1
photocatalytic hydrogen evolution rate: 0 µmol/h

O=C(c1ccccc1)c1ccccc1
photocatalytic hydrogen evolution rate: 3.25 µmol/h

CC1(C)OB(c2cc(B3OC(C)(C)C(C)(C)O3)cc(B3OC(C)(C)C(C)(C)O3)c2)OC1(C)C
photocatalytic hydrogen evolution rate: 0.0124 µmol/h

Brc1sc(Br)c(Br)c1Br
photocatalytic hydrogen evolution rate: 0 µmol/h

O=Cc1ccc(-c2ccc(F)cc2)cc1
photocatalytic hydrogen evolution rate: 5.25 µmol/h

O=C1c2ccccc2-c2ccccc21
photocatalytic hydrogen evolution rate: 2.56 µmol/h

Cc1c(C)c(C)c(C=O)c(C)c1C
photocatalytic hydrogen evolution rate: 0.844 µmol/h

O=Cc1c2ccccc2c(C=O)c2ccccc12
photocatalytic hydrogen evolution rate: 2.97 µmol/h

Cc1ccc(Nc2ccc(C)cc2)cc1
photocatalytic hydrogen evolution rate: 0.074 µmol/h

O=C(O)c1ccc(N=Nc2ccccc2)cc1
photocatalytic hydrogen evolution rate: 0 µmol/h

c1csc(-c2ccc(-c3cccs3)s2)c1
photocatalytic hydrogen evolution rate: 0 µmol/h

C=CS(=O)(=O)c1ccccc1
photocatalytic hydrogen evolution rate: 0 µmol/h

CC(=O)c1ccc([N+](=O)[O-])cc1
photocatalytic hydrogen evolution rate: 0 µmol/h

O=C(O)C(c1ccccc1)(c1ccccc1)c1ccccc1
photocatalytic hydrogen evolution rate: 0 µmol/h

c1ccc(N(c2ccccc2)c2cc(N(c3ccccc3)c3ccccc3)cc(N(c3ccccc3)c3ccccc3)c2)cc1
photocatalytic hydrogen evolution rate: 0 µmol/h

N#CCc1cccc(CC#N)c1
photocatalytic hydrogen evolution rate: 0 µmol/h

Brc1cccc2cc3cccc(Br)c3cc12
photocatalytic hydrogen evolution rate: 0 µmol/h

c1cc2cccc3c4cccc5cccc(c(c1)c23)c54
photocatalytic hydrogen evolution rate: 1.25 µmol/h

O=Cc1ccc(Br)nc1
photocatalytic hydrogen evolution rate: 0.297 µmol/h

N#Cc1c(F)cc(F)cc1F
photocatalytic hydrogen evolution rate: 0.0527 µmol/h

O=Cc1ccnc(-c2cc(C=O)ccn2)c1
photocatalytic hydrogen evolution rate: 0 µmol/h

Nc1c(Br)ccc(Br)c1N
photocatalytic hydrogen evolution rate: 0 µmol/h

Brc1ccc(-c2ccc(-c3ccc(Br)s3)s2)s1
photocatalytic hydrogen evolution rate: 0 µmol/h

O=Cc1ccc(N(c2ccccc2)c2ccc(-c3ccc(N(c4ccccc4)c4ccc(C=O)cc4)cc3)cc2)cc1
photocatalytic hydrogen evolution rate: 0 µmol/h

COC(=O)c1ccc2cc(C(=O)OC)ccc2c1
photocatalytic hydrogen evolution rate: 0.0623 µmol/h

Oc1ccc(-c2ccc(O)cc2)cc1
photocatalytic hydrogen evolution rate: 0.00401 µmol/h

Cc1ccc(N(c2ccccc2)c2ccccc2)cc1
photocatalytic hydrogen evolution rate: 0 µmol/h

Brc1ccc2ccccc2c1-c1c(Br)ccc2ccccc12
photocatalytic hydrogen evolution rate: 0 µmol/h

O=C1c2c(O)cccc2Cc2cccc(O)c21
photocatalytic hydrogen evolution rate: 0 µmol/h

Cc1c(C2(c3cc(Br)c(O)c(Br)c3C)OS(=O)(=O)c3ccccc32)cc(Br)c(O)c1Br
photocatalytic hydrogen evolution rate: 0 µmol/h

Fc1c(F)c(-c2c(F)c(F)c(Br)c(F)c2F)c(F)c(F)c1Br
photocatalytic hydrogen evolution rate: 0 µmol/h

O=C(O)c1ccccc1[N+](=O)[O-]
photocatalytic hydrogen evolution rate: 0 µmol/h

CC(C)(C)c1ccc(C(=O)CC#N)cc1
photocatalytic hydrogen evolution rate: 0.0435 µmol/h

Brc1ccc2c(c1)C1(c3ccccc3-c3ccccc31)c1cc(Br)ccc1-2
photocatalytic hydrogen evolution rate: 0 µmol/h

N#CC(C#N)=c1c(F)c(F)c(=C(C#N)C#N)c(F)c1F
photocatalytic hydrogen evolution rate: 0 µmol/h

N#Cc1cnc(N)c(C#N)c1
photocatalytic hydrogen evolution rate: 0.468 µmol/h

c1ccc2c(c1)CCc1ccccc1N2
photocatalytic hydrogen evolution rate: 0 µmol/h

CCN(CCO)c1ccc(N=Nc2ccc([N+](=O)[O-])cc2)cc1
photocatalytic hydrogen evolution rate: 0 µmol/h

Cc1cncc(C)n1
photocatalytic hydrogen evolution rate: 0.0345 µmol/h

Clc1ccc2ccc(Cl)nc2n1
photocatalytic hydrogen evolution rate: 0.122 µmol/h

O=c1c2ccccc2oc2ccccc12
photocatalytic hydrogen evolution rate: 7.48 µmol/h

C1=CSC(=C2SC=CS2)S1
photocatalytic hydrogen evolution rate: 0 µmol/h

Brc1ccc2c(c1)oc1cc(Br)ccc12
photocatalytic hydrogen evolution rate: 0 µmol/h

Nc1ccccc1-c1ccccc1
photocatalytic hydrogen evolution rate: 0 µmol/h

N#Cc1cc(F)cc(F)c1
photocatalytic hydrogen evolution rate: 0 µmol/h

C#Cc1ccc(Br)cc1
photocatalytic hydrogen evolution rate: 0 µmol/h

O=C1Nc2c(Br)cc(Br)cc2C1=O
photocatalytic hydrogen evolution rate: 0.874 µmol/h

Nc1cc(Br)ccc1Br
photocatalytic hydrogen evolution rate: 0 µmol/h

Oc1ccc2c(c1)Oc1cc(O)ccc1C21c2ccccc2-c2ccccc21
photocatalytic hydrogen evolution rate: 0 µmol/h

N#Cc1cc(N)cc(Cl)c1
photocatalytic hydrogen evolution rate: 0.000715 µmol/h

Cc1[nH]c(C=O)cc1C#N
photocatalytic hydrogen evolution rate: 0 µmol/h

N#Cc1ccc(Br)cc1F
photocatalytic hydrogen evolution rate: 0 µmol/h

O=C1c2ccccc2C(=O)C1(O)O
photocatalytic hydrogen evolution rate: 0 µmol/h

CCc1cc(C#N)ccc1C#N
photocatalytic hydrogen evolution rate: 0 µmol/h

Cc1cc(C=O)cc(C)c1O
photocatalytic hydrogen evolution rate: 0.0076 µmol/h

O=C1C(c2ccccc2)=C(c2ccccc2)C(c2ccccc2)=C1c1ccccc1
photocatalytic hydrogen evolution rate: 0.0996 µmol/h

O=C1OC2(c3cc(Cl)c(O)cc3Oc3cc(O)c(Cl)cc32)c2ccccc21
photocatalytic hydrogen evolution rate: 25.2 µmol/h

From the supplement of paper PMC8372320
